Assay [1] has as its system Jeko-1. Kind of assay: cells. Type of assay: cell-based. The note with it: Homo sapiens. The method, then: (§1) Ricolinostat was administered to each cell line at various concentrations (0.01, 0.1, 1, 5, and 10 μM), and cell viability was measured at 24, 48, and 72 hours.
(§2) Bendamustine was administered to each cell line at various concentrations (25, 50, 100, 200, and 300 μM), and cell viability was measured at 24 and 48 hours.
(§3) The effect of the drugs on each cell line was determined, and the combination index (CI) was measured. A CI<1 means synergy; a CI=1 means an additive effect; and a CI>1 means antagonism.

The subject of assay [2] is Hut-78. Briefly: cells. Type of assay: cell-based. The following applies: Homo sapiens. The method, then:
as §1, §2, §3

For assay [3], the system named is WSU-NHL. Briefly: cells. The following applies: Homo sapiens. Type of assay: cell-based. Here is the method: as §1, §2, §3
Assay [4] has as its system lymphoma cell lines. Briefly: cells. Format: cell-based.
Assay [5] deals with Granta-519. Kind of assay: cells. The note with it: Homo sapiens, MTT. Type of assay: cell-based. Here is the method:
as §1

The target of assay [6] is T1, HDAC6 (Homo sapiens, UniProt Q9UBN7).
T1 construct: endogenous in cells; host or cells: WSU-NHL, Hut-78, Jeko-1 lymphoma cell lines
T1 sequence (Q9UBN7 1-1215): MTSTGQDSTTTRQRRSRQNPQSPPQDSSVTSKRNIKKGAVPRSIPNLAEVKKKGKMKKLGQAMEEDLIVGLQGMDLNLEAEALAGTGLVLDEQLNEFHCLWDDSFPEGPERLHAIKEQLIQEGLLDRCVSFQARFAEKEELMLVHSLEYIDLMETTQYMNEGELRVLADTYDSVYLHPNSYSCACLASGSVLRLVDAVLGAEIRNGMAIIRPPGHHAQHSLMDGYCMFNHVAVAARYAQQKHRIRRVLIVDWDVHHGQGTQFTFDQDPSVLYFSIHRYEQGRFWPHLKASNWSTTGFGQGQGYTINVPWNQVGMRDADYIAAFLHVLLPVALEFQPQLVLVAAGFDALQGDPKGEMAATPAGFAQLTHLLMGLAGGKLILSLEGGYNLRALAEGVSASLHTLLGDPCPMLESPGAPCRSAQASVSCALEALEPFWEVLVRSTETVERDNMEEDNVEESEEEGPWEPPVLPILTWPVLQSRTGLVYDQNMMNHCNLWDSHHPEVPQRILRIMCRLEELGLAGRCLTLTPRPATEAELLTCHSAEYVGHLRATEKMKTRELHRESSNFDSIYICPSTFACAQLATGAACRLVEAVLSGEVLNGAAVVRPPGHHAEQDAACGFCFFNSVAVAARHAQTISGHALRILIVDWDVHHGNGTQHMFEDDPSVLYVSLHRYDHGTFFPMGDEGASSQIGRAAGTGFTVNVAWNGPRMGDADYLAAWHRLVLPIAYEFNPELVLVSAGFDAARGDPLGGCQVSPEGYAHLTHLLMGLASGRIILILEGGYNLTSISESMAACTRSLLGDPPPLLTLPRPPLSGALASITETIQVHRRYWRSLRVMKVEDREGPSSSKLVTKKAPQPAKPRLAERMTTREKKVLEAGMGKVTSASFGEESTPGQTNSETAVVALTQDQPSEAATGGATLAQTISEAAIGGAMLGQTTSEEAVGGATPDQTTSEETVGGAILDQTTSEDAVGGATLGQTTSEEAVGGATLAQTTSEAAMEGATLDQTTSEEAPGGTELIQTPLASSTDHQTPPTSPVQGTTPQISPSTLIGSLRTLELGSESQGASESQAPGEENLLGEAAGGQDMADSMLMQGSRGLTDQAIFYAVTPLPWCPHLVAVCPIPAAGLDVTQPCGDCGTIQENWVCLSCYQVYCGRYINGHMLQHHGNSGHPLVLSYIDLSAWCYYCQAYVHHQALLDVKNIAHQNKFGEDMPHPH
Briefly: Western blot of HDAC6 and acetylated α-tubulin. Format: cell-based. The note with it: 24 h. From the text: Tubulin was used to normalize protein loading.

Assay [7] deals with WSU-NHL, Hut-78 and Jeko-1 cells. Briefly: Methylcellulose clonogenic assay. The note with it: 24 h liquid culture, colonies counted after 10 days. Format: cell-based. The method, then: FIG. 2D and FIG. 2E show effects of ricolinostat alone and in combination with bendamustine on clonogenic survival. WSU-NHL, Hut-78 and Jeko-1 cells were first incubated with ricolinostat alone (1, 5, 10 μM) (C) and subsequently in combination with bendamustine (D) in liquid culture for 24 h. Treated cells were incubated in methylcellulose and colonies consisting of more 50 cell were counted after 10 days. The relative percentage with respect to control cells are shown and represent the mean±SD of three separate experiments.

In assay [8] the test system is reactive oxygen species (ROS). Kind of assay: ROS generation by flow cytometry and Trx1 western blot. The following applies: 24 h and 48 h. On the technique in general: A flow cytometer gives signals particle by particle.
Description: All data are expressed as the mean±SD of triplicate culture.
H2O2 was used as a positive control.
(§5) Apoptosis, reactive oxygen species (ROS), cell cycle analysis, and Bcl-2 protein expression were measured by flow cytometry.
The test system of assay [9] is lymphoma cell lines (WSU-NHL, Hut-78, Jeko-1). Kind of assay: Cell cycle analysis by flow cytometry. The note with it: 24 h.
Description: The bars of M1, M2, M3 and M4 indicate the sub-G0/G1, G0/G1, S and G2/M phases, respectively.
All values represent the mean±SD of three independent experiments.
as §5
For assay [10], the system named is Karpas-299. Briefly: MTT cell viability in Karpas-299 cells. Type of assay: cell-based. The note with it: Homo sapiens, Karpas-299, 48 h. Here is the method:
(§4) HDAC6 protein is expressed in all cell lines examined (FIG. 1A). Ricolinostat was administered to each cell line at various concentrations (0.01, 0.1, 1, 5, and 10 μM), and cell viability was measured at 24, 48, and 72 hours.

For assay [11], the system named is lymphoma cell lines (WSU-NHL, Hut-78, Jeko-1). Format: cell-based. The note with it: flow cytometry, 24-48 h. The method, then:
In FIG. 5A WSU-NHL cells were treated with either ricolinostat, bendamustine, or ricolinostat and bendamustine at the indicated concentrations. After 24 hours, the cells were fixed and stained with propidium iodide, and were analyzed by flow cytometry. […] This effect was enhanced by the combination with bendamustine (FIGS. 5C and 5D).

The test system of assay [12] is RL. Briefly: MTT cell viability in RL cells. The note with it: Homo sapiens, 48 h. Format: cell-based. Here is the method: as §4
Assay [13] relates to IL-10. Briefly: IL-10 secretion by ELISA. (ELISA stands for enzyme-linked immunosorbent assay.)
Description: IL-10 secretion was analyzed by ELISA. All data are means (±SD) of at least three separate experiments each performed in duplicate.
Assay [14] concerns tubulin polymerization. Briefly: Tubulin polymerization by α-tubulin staining and flow cytometry. The following applies: 24 hours, intensity of fluorescence.
Description: Data are expressed as mean±SD and were obtained from three independent experiments performed in triplicate.
Lymphoma cells were treated for 24 hours with ricolinostat alone and in combination with bendamustine along with the microtubule destabilizer nocodazole (1 μM) and the microtubule stabilizer paclitaxel (100 nM). This was followed by whole cell-based quantitative measurement of tubulin polymerization using alpha-tubulin staining.

The values that follow come from patent US9937174B2, “Combinations of histone deacetylase inhibitors and bendamustine” (priority 2014, dated 2018).

Read-outs that look alike come from different tables or passages of the source.

In the case of `Cn1c(CCCC(=O)O)nc2cc(N(CCCl)CCCl)ccc21` [bendamustine, 4-[5-[Bis(2-chloroethyl)amino]-1-methylbenzimidazol-2-yl]butanoic acid], the IC50 (in general, the concentration needed to halve the response being measured) in [1] (JeKo-1, 24 h, read-out: IC50 at 24 hours) is 127 µM; in assay [2] (HuT78, 24 h, read-out: IC50 at 24 hours), 144 µM; in [3] (24 h, read-out: IC50 at 24 hours), 168 µM; in assay [4] (24 h, read-out: range of IC50), 127 to 168 µM.
On to `O=C(CCCCCCNC(=O)c1cnc(N(c2ccccc2)c2ccccc2)nc1)NO` [ricolinostat, 2-(diphenylamino)-N-(7-(hydroxyamino)-7-oxoheptyl)pyrimidine-5-carboxamide], for which the IC50 in assay [5] (Granta-519, 24 h) came to 64 µM; in assay [5] (Granta-519, 48 h) it was 20 µM; in assay [1] (Jeko-1, 48 h, MTT, read-out: IC50), 3.42 µM; in [2] (HuT78, 48 h, Hut-78, 48 h, MTT, read-out: IC50), 1.51 µM; in [2] (HuT78, 48 h, Hut-78, 48 hours, MTT, read-out: IC50), 1.5 µM; in assay [3] (24 h, MTT, read-out: IC50), 8.65 µM. In addition, the IC50 in assay [3] (48 h, MTT, read-out: IC50) was 1.97 µM; in assay [10] it was 4.82 µM; in assay [4] (lymphoma cell lines, exposure 24-72 hours, read-out: IC50 values ranging), 0.17 to 8.65 µM; in assay [4] (panel of six lymphoma cell lines, 24 and 48 h, read-out: IC50 values ranging), 1.51 to 64 µM; in assay [12], 3.37 µM. Also, the “HDAC6 expression and acetylation level of α-tubulin” value in assay [6] was “reduced HDAC6 expression and induced the acetylation level of α-tubulin”. Moreover, the “clonogenic survival / colony formation” value in [7] is given as “reduced clonogenic survival in a dose dependent manner”. Moreover, the ROS generation entry in [8] is reported as “induced an increase of ROS production at 24 h, which further increased after 48 h”. Moreover, in assay [9], the cell cycle distribution entry was “increase in the percentage of cells in the G0/G1 phase and a decrease in the G2/M phase”. Besides, the induction of apoptosis result in assay [11] is “induced apoptosis in all cell lines examined in time- and dose dependent manner”. Moreover, the IL-10 secretion entry in assay [13] is on record as “down-regulation of IL-10”. In assay [14], the tubulin polymerization result is on record as “induced tubulin polymerization”.
